Data published in the NIST ThermoML archive (doi:10.1021/acs.jced.9b00074).
Numbers after ± are expanded uncertainties.

Conditions: 100 kPa, Liquid; for viscosity: Falling or rolling sphere viscometry; for mass density: Vibrating tube method

## CC12CC3CC(C1)CC(C)(C3)C2 [1,3-dimethyladamantane]
293.15 K
  viscosity: 3.75 ± 0.08 mPa·s
  mass density: 901.57 ± 0.55 kg/m3
298.15 K
  viscosity: 3.34 ± 0.071 mPa·s
  mass density: 898 ± 0.54 kg/m3
303.15 K
  viscosity: 2.997 ± 0.064 mPa·s
  mass density: 894.43 ± 0.54 kg/m3
308.15 K
  viscosity: 2.702 ± 0.057 mPa·s
  mass density: 890.86 ± 0.54 kg/m3
313.15 K
  viscosity: 2.45 ± 0.052 mPa·s
  mass density: 887.29 ± 0.54 kg/m3
318.15 K
  viscosity: 2.231 ± 0.047 mPa·s
  mass density: 883.71 ± 0.54 kg/m3
323.15 K
  viscosity: 2.039 ± 0.043 mPa·s
  mass density: 880.13 ± 0.53 kg/m3
328.15 K
  viscosity: 1.871 ± 0.04 mPa·s
  mass density: 876.55 ± 0.53 kg/m3
333.15 K
  viscosity: 1.722 ± 0.037 mPa·s
  mass density: 872.96 ± 0.53 kg/m3

## OC1CCCC1 [cyclopentanol]
293.15 K
  viscosity: 11.72 ± 0.25 mPa·s
  mass density: 947.04 ± 0.57 kg/m3
298.15 K
  viscosity: 9.6 ± 0.2 mPa·s
  mass density: 943.08 ± 0.57 kg/m3
303.15 K
  viscosity: 7.891 ± 0.17 mPa·s
  mass density: 939.08 ± 0.57 kg/m3
308.15 K
  viscosity: 6.564 ± 0.14 mPa·s
  mass density: 935.03 ± 0.56 kg/m3
313.15 K
  viscosity: 5.509 ± 0.12 mPa·s
  mass density: 930.92 ± 0.56 kg/m3
318.15 K
  viscosity: 4.657 ± 0.099 mPa·s
  mass density: 926.76 ± 0.56 kg/m3
323.15 K
  viscosity: 3.97 ± 0.084 mPa·s
  mass density: 922.53 ± 0.56 kg/m3
328.15 K
  viscosity: 3.409 ± 0.072 mPa·s
  mass density: 918.24 ± 0.55 kg/m3
333.15 K
  viscosity: 2.945 ± 0.063 mPa·s
  mass density: 913.89 ± 0.55 kg/m3

## C1C[C@@H]2[C@H]3CC[C@H](C3)[C@@H]2C1 [exo-tetrahydrodicyclopentadiene]
293.15 K
  viscosity: 3.017 ± 0.068 mPa·s
  mass density: 935.88 ± 0.7 kg/m3
298.15 K
  viscosity: 2.731 ± 0.061 mPa·s
  mass density: 932 ± 0.69 kg/m3
303.15 K
  viscosity: 2.488 ± 0.056 mPa·s
  mass density: 928.08 ± 0.69 kg/m3
308.15 K
  viscosity: 2.273 ± 0.051 mPa·s
  mass density: 924.16 ± 0.69 kg/m3
313.15 K
  viscosity: 2.087 ± 0.047 mPa·s
  mass density: 920.24 ± 0.68 kg/m3
318.15 K
  viscosity: 1.922 ± 0.043 mPa·s
  mass density: 916.31 ± 0.68 kg/m3
323.15 K
  viscosity: 1.776 ± 0.04 mPa·s
  mass density: 912.38 ± 0.68 kg/m3
328.15 K
  viscosity: 1.646 ± 0.037 mPa·s
  mass density: 908.44 ± 0.68 kg/m3
333.15 K
  viscosity: 1.53 ± 0.034 mPa·s
  mass density: 904.5 ± 0.67 kg/m3
